Reference: ChEMBL document CHEMBL4418499, “Inhibitors of trim33 and methods of use” (2018)

Key:
[1] = biological target: T1, Transcription intermediary factor 1-alpha (Homo sapiens, UniProt O15164); test: Inhibition of recombinant TRIM24 (unknown origin) using biotinylated H3 peptide (H3K9me3K18ac) by AlphaScreen assay
T1 sequence (O15164 whole entry): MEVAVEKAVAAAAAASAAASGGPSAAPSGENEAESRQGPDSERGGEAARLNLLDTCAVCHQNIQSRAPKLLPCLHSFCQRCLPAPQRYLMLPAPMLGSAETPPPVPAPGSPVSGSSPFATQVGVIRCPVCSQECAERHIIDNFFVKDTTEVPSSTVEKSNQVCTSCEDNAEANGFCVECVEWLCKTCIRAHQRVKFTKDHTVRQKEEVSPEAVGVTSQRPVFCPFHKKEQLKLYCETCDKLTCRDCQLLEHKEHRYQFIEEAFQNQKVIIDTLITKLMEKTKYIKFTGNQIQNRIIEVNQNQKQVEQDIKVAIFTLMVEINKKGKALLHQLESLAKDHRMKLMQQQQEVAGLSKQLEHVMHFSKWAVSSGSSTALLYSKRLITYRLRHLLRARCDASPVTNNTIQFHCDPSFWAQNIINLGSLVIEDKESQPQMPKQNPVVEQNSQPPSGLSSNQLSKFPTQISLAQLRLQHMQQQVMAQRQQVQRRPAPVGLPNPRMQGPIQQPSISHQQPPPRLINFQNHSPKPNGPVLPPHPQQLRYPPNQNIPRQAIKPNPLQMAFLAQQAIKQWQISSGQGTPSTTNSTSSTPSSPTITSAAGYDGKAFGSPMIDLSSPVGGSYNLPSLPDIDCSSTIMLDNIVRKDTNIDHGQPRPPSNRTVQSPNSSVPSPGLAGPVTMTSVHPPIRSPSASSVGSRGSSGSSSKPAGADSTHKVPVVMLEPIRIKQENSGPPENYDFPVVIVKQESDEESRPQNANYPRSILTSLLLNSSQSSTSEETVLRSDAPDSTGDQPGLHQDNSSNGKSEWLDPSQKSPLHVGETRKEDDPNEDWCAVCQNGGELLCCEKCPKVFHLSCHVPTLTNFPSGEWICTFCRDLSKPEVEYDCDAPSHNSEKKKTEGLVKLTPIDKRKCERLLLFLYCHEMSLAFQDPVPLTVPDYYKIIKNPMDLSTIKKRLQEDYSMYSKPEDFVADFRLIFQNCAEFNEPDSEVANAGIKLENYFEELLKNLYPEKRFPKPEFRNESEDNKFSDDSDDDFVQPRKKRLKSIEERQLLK

[2] = biological target: T2, E3 ubiquitin-protein ligase TRIM33 (Homo sapiens, UniProt Q9UPN9); test: Inhibition of recombinant TRIM33 PHD bromodomain (unknown origin) using biotinylated H3 peptide (H3K9me3K18ac) by AlphaScreen assay
T2 sequence (Q9UPN9 whole entry): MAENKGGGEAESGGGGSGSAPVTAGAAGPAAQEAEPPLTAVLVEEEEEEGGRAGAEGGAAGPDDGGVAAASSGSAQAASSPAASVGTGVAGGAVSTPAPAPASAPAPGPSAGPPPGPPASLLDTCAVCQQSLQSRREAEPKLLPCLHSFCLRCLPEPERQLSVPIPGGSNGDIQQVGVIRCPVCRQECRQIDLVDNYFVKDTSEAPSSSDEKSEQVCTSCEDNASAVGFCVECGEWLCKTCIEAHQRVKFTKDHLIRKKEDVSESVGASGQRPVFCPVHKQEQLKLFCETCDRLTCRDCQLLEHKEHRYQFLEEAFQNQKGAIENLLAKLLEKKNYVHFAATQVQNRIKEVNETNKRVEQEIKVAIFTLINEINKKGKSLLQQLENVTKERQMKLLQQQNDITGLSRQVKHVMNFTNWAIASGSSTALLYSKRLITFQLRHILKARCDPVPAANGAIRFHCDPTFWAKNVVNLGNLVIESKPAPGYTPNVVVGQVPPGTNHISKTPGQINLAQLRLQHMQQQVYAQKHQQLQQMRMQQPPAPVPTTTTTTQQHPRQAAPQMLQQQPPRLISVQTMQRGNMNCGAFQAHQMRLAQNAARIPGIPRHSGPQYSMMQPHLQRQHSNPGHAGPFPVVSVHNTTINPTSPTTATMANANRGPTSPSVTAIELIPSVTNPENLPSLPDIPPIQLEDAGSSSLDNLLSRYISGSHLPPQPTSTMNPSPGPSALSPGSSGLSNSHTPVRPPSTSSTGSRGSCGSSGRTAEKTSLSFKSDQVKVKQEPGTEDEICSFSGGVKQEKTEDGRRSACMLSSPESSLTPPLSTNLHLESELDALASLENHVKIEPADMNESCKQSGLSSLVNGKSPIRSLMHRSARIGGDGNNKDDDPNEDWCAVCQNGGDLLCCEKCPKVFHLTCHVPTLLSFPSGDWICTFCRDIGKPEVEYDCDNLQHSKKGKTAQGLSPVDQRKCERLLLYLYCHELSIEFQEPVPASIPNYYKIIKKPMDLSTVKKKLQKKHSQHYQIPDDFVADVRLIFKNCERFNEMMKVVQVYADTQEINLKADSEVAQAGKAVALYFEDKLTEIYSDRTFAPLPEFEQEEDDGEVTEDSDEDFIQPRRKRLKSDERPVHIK

Homo sapiens = organism: Homo sapiens; test: Selectivity index, ratio of IC50 for recombinant TRIM24 (unknown origin) to IC50 for recombinant TRIM33 PHD bromodomain (unknown origin)

SMILES | IC50 [1] [µM] | IC50 [2] [µM] | Ratio IC50 (Homo sapiens)
Cc1[nH]cnc1-c1nc2cnccn2c1NCCN1CCOCC1 | 119 | 71 | 1.67
Cc1nc[nH]c1-c1nc2cnccn2c1NC1CCCCC1 | 90.1 |  | 
CCCOc1ccn2c(C(C)=O)cc(-c3nc4cnccn4c3Nc3ccc(OC)cc3)c2c1 | 226 | 38.5 | 5.87
Cc1[nH]cnc1-c1nc2ccccn2c1NC1CCCCC1 |  |  | 8.45
N#Cc1ccc(CNc2c(-c3ccc4nccn4c3)nc3cnccn23)cc1 | 818 | 46.1 | 17.7
COC(=O)c1ccc2nc(-c3ccc4nccn4c3)c(NCc3ccc(C#N)cc3)n2c1 |  | 125 | 486
Cc1nc(-c2nc3ccccn3c2NCc2ccc(C#N)cc2)c[nH]1 | 267 | 26.8 | 9.97
COc1ccc(CCNc2c(-c3ccc4nccn4c3)nc3ccc(Br)cn23)cc1OC | 283 | 20.4 | 13.9
CCCOc1ccn2c(C(C)=O)cc(-c3nc4cnccn4c3NCCc3ccc(OC)c(OC)c3)c2c1 | 835 | 23.7 | 35.3
Cc1[nH]cnc1-c1nc2cnccn2c1NCc1ccc(C#N)cc1 | 98.4 | 121 | 0.82
COCCNc1c(-c2nc[nH]c2C)nc2ccc(C(=O)OC)cn12 | 511 |  | 
COC(=O)c1ccc2nc(-c3ccc4nccn4c3)c(NCCc3ccc(OC)c(OC)c3)n2c1 | 5980 | 15.7 | 380
Cc1[nH]cnc1-c1nc2ccc(Br)cn2c1NCc1ccc(C#N)cc1 | 29.3 | 10.1 | 2.91
Cc1nc(-c2nc3cnccn3c2NCCN2CCOCC2)c[nH]1 | 1890 | 131 | 14.5
N#Cc1ccc(CNc2c(-c3ccc4nccn4c3)nc3ccccn23)cc1 | 2080 | 87.4 | 23.8
Cc1[nH]cnc1-c1nc2ccccn2c1NCCN1CCOCC1 |  |  | 13.3
COc1ccc(CCNc2c(-c3nc[nH]c3C)nc3ccc(Br)cn23)cc1OC | 28.9 |  | 
Cc1nc[nH]c1-c1nc2ccccn2c1NC1CCCCC1 | 9.03 | 1.07 | 
COC(=O)c1ccc2nc(-c3ccc4nccn4c3)c(NC3CCCCC3)n2c1 | 502 | 42.6 | 
COC(=O)c1ccc2nc(-c3nc[nH]c3C)c(NC3CCCCC3)n2c1 | 143 |  | 
CCCOc1ccn2c(C(C)=O)cc(-c3nc4cnccn4c3NC3CCCCC3)c2c1 |  | 80 | 

SMILES | IC50 [1] [µM] | IC50 [2] [µM] | Ratio IC50 (Homo sapiens)
COc1ccc(CCNc2c(-c3ccc4nccn4c3)nc3cnccn23)cc1OC |  | 29.7 | 1.9
COc1ccc(CCNc2c(-c3ccc4nccn4c3)nc3ccccn23)cc1OC | 1510 |  | 
COc1ccc(Nc2c(-c3c[nH]c(C)n3)nc3cnccn23)cc1 | 385 | 153 | 
Cc1nc(-c2nc3cnccn3c2NC2CCCCC2)c[nH]1 | 186 | 415 | 
COc1ccc(CCNc2c(-c3c[nH]c(C)n3)nc3ccccn23)cc1OC | 44.4 |  | 
COc1ccc(CCNc2c(-c3c[nH]c(C)n3)nc3ccc(Br)cn23)cc1OC | 63.5 |  | 
O=Cc1ccccc1O | 0.221 | 0.299 | 
CCCOc1ccn2c(C(C)=O)cc(-c3nc4ccccn4c3NCc3ccc(C#N)cc3)c2c1 |  | 46.3 | 
CCCOc1ccn2c(C(C)=O)cc(-c3nc4cnccn4c3NCCOC)c2c1 | 2850 |  | 
CCCOc1ccn2c(C(C)=O)cc(-c3nc4ccc(C(=O)OC)cn4c3NCCOC)c2c1 | 2880 |  | 
O=C1CCCCCCC1 [CYCLOOCTANONE] | 0.166 | 0.25 | 
COC(=O)c1ccc2nc(-c3ccc4nccn4c3)c(NCCN3CCOCC3)n2c1 | 700 | 303 | 
O=C1CCCC1 [CYCLOPENTANONE] | 0.136 | 0.234 | 
CCCOc1ccn2c(C(C)=O)cc(-c3nc4ccc(C(=O)OC)cn4c3NC3CCCCC3)c2c1 | 255 |  | 
COCCNc1c(-c2c[nH]c(C)n2)nc2ccc(C(=O)OC)cn12 | 4.07 | 10.5 to 56.9 | 
COC(=O)c1ccc2nc(-c3c[nH]c(C)n3)c(NCc3ccc(C#N)cc3)n2c1 |  | 650 | 
COC(=O)c1ccc2nc(-c3nc[nH]c3C)c(NCCN3CCOCC3)n2c1 |  |  | 11.8
CCCOc1ccn2c(C(C)=O)cc(-c3nc4ccc(C(=O)OC)cn4c3NCc3ccc(C#N)cc3)c2c1 |  | 65.1 | 515
COC(=O)c1ccc2nc(-c3nc[nH]c3C)c(NCCc3ccc(OC)c(OC)c3)n2c1 | 377 |  | 
CCCOc1ccn2c(C(C)=O)cc(-c3nc4ccc(C(=O)OC)cn4c3NCCc3ccc(OC)c(OC)c3)c2c1 | 5650 |  | 
COc1ccc(Nc2c(-c3nc[nH]c3C)nc3ccccn23)cc1 |  |  | 5.35

The remaining lines, values ahead:

IC50 [1] [µM] | IC50 [2] [µM] | Ratio IC50 (Homo sapiens) | SMILES
13 | 3.6 | 3.62 | Cc1nc(-c2nc3ccc(Br)cn3c2NC2CCCCC2)c[nH]1
0.157 | 0.24 |  | Cc1cccc2c(C=O)c[nH]c12
320 | 169 |  | c1cn2c(NC3CCCCC3)c(-c3ccc4nccn4c3)nc2cn1
153 | 26 | 5.88 | COc1ccc(Nc2c(-c3ccc4nccn4c3)nc3ccccn23)cc1
5450 | 190 | 28.6 | COCCNc1c(-c2ccc3nccn3c2)nc2cnccn12
0.225 | 0.283 |  | Cc1ncc(CO)c(C=O)c1O
117 |  |  | Cc1[nH]cnc1-c1nc2ccc(Br)cn2c1NCCN1CCOCC1
134 |  |  | COCCNc1c(-c2nc[nH]c2C)nc2ccc(Br)cn12
 | 366 | 48.4 | c1ccn2c(NCCN3CCOCC3)c(-c3ccc4nccn4c3)nc2c1
0.162 | 0.326 |  | COc1cc(C=O)ccc1O [VANILLIN]
 |  | 189 | COc1ccc(Nc2c(-c3nc[nH]c3C)nc3ccc(Br)cn23)cc1
 | 204 | 115 | COCCNc1c(-c2nc[nH]c2C)nc2cnccn12
100 |  |  | Brc1ccc2nc(-c3ccc4nccn4c3)c(NC3CCCCC3)n2c1
0.165 | 0.336 |  | O=Cc1cccc(-c2ccc(C(=O)O)cc2)c1
0.22 | 0.301 |  | COc1ccc(C=O)c(O)c1
0.18 | 0.305 |  | Cn1cccc1C=O
7.86 | 5.48 |  | O=Cc1cccnc1Br
1380 |  |  | Brc1ccc2nc(-c3ccc4nccn4c3)c(NCCN3CCOCC3)n2c1
0.133 | 0.269 |  | O=Cc1ccc(N2CCCC2)cc1
2.59 | 0.0137 |  | COc1ccc(Nc2c(-c3[nH]cnc3C)nc3ccc(Br)cn23)cc1
